Test results published in US9359363B2, “Identification of compounds that disperse TDP-43 inclusions” (priority 2011, dated 2016).
pEC50: −log10 of the molar value.

System: non-transgenic N2 C. elegans
Assay: Motor function in non-transgenic N2 C. elegans
Type: in vivo
Conditions: non-transgenic N2 line; FIG. 19 varying doses, FIG. 21 34.8 μM

Row | Compound | motor function
1 | CCc1ccc(NC(=O)C(Cc2ccccc2)NS(=O)(=O)c2cccc3cccnc23)cc1 (stereo not drawn) [Compound 7] | improves motor function

System: C. elegans expressing human WT TDP-43 (CK405)
Assay: Motor function in C. elegans expressing human WT TDP-43
Type: in vivo
Conditions: transgenic TDP-43 nematodes, line not specified
From the text: Determining whether compounds delay deterioration of motor function in C. elegans expressing TDP-43 in C. elegans: C. elegans is generally used as a simple in vivo model of disease bridging the gap between in vitro studies and in vivo studies in rodents (J Biol Chem, 2005. 280: 42655-68; J Neurosci, 2009. 29: 9210-8; Neurodegener Dis, 2010. 7: 68-75; each herein incorporated by reference in its entirety). Accordingly, C. elegans lines expressing TDP-43 (WT, G294A and A315T), obtained from Brian Kraemer, can be used to determine whether the indentified compounds ameliorate motor dysfunction associated with TDP-43 expression (J Neurosci, 2010. 30: 16208-19; herein incorporated by reference in its entirety). […] Movement and survival are calculated at adult days 1, 3 and 5, using methods described in the art (see, e.g., J. Neurosci. 2010 December 1, 30(48):16208-19; IEEE Trans Biomed Eng. 2004 October 51(10):1811-20, each herein incorporated by reference in its entirety).
In one example, eggs (C. elegans expressing A315T TDP-43, line CK426) were plated on agar containing the test compound. On day 4, movement of C. elegans was quantified and moved to plates with fresh compounds. On day 5, movement of C. elegans was again quantified. […]

Row | Compound | motor function
2 | CCc1ccc(NC(=O)C(Cc2ccccc2)NS(=O)(=O)c2cccc3cccnc23)cc1 (stereo not drawn) [Compound 7] | improves motor function

System: mutant TDP-43 inclusions in human BE-M17 neuroblastoma cells
Assay: Arsenite-induced TDP-43 inclusion formation in BE-M17 cells
Type: cell-based
Conditions: arsenite 0.5 mM, 1 hr, 10 μg/ml
From the text: The inventors transfected human BE-M17 neuroblastoma cells with WT TDP-43, TDP-4386-414 or TDP-43216-414 constructs N-terminally tagged with GFP. Full length WT TDP-43 localized to the nucleus under basal conditions (FIG. 15, WT TDP-43 shown). To investigate TDP-43 aggregation under the stressful conditions, cells were exposed to arsenite, an agent classically used to induce SGs (Biochem Soc Trans, 2002, 30, 963-9; J Cell Biol, 2000, 151, 1257-68; J Cell Biol, 1999, 147, 1431-42; each herein incorporated by reference in its entirety). Arsenite causes stress through multiple mechanisms (Toxicol Appl Pharmacol, 2001, 177, 132-48; herein incorporaed by reference in its entirety). Arsenite directly induces oxidative stress by reacting with oxygen in a reaction similar to the Fenton reaction, and arsenite also uses up glutathione, which causes further oxidative stress (Toxicol Appl Pharmacol, 2001, 177, 132-48; herein incorporaed by reference in its entirety). Upon exposure to arsenite (1 hr) WT TDP-43 remained largely nuclear, but a small amount translocated to the cytoplasm where it formed inclusions (FIG. 15A, right panels, arrows). To determine whether the inclusions co-localized with SGs, we co-labeled the cells with antibodies to SG markers, including TIA-1, eIF3 and poly-A binding protein (PABP) (FIG. 15). […] Co-localization with other SG markers is also observed. […]

Row | Compound | formation of inclusions composed of mutant TDP-43 constructs
3 | C[C@@H]1C[C@@H]([C@H](O)CC2CC(=O)NC(=O)C2)C(=O)[C@@H](C)C1 [cycloheximide] | reversible

System: TDP-43 inclusions in PC12 cells expressing WT TDP-43::GFP
Assay: High-throughput screen for inhibition of TDP-43 inclusion formation in inducible TDP-43::GFP PC12 cells (IN Cell Analyzer)
Conditions: Rattus norvegicus, PC-12, 18 h, read-out: Inhibition of TDP-43 Inclusion Formation EC50
Experimental: We generated a Tet-Off inducible PC12 cell line (Clontech; the parent line stably expresses high levels of the Tetracycline binding protein) that is stably transfected with a WT TDP-43::GFP (where the GFP is at the C-terminus). […] The high-throughput screen used the arsenite (50 μM, 18 hrs) treatment protocol, where arsenite was added 1 hr after the test compounds.
We used the automated GE IN Cell Analyzer 1000 microscope system for high throughput analyses. Test chemicals were added to the cells 48 hrs after induction of TDP-43 (by removal of doxycycline). After another 24 hrs, the cells were fixed and double-stained with DAPI (to detect nuclei). Inclusions present in a collar around the nucleus but not fully co-localized with the DAPI stain (FIG. 1) were identified by the IN-Cell analyzer as inclusions. The computer counted the number of cells (based on DAPI-positive nuclei), TDP-43 levels and inclusions per field. The counts from 6 different fields within a well were averaged to develop a measure of the mean number of inclusions per field. This was repeated for every well in a 384 well plate and every plate in the library.
PC12 cells are grown in DMEM, 10% NBS/Pen-Strep, 100 μg/ml hygromycin, 50 μM puromycin and 50 μg/ml doxycycline (the latter is removed for TDP-43 induction).

Row | pEC50 | Compound
4 | 5.82 | COc1c(C)c2c(c(O)c1C/C=C(\C)CCC(=O)O)C(=O)OC2 [Mycophenolic acid, reference compound]

Same assay, conditions: read-out: Inhibition of TDP-43 Inclusion Formation EC50; PC12 TDP-43::GFP cells; arsenite 50 μM, 18 hrs; representative values

Row | Compound | pEC50
5 | COc1ccccc1OCC(=O)NC1CCCN(c2ccc(C(F)(F)F)cn2)C1 (stereo not drawn) [Compound 4] | 7.01
6 | C#CCNCC1(c2ccccc2)CCN(CCCCOC(c2ccc(F)cc2)c2ccc(F)cc2)CC1 [Compound 2-2] | 6.54
7 | COCc1ccc(C(=O)NC(CC(C)C)c2nnc3n2CCN(Cc2cc4ccccc4o2)CC3)o1 (stereo not drawn) [Compound 2-7] | 7.96
8 | CCc1ccc(NC(=O)C(Cc2ccccc2)NS(=O)(=O)c2cccc3cccnc23)cc1 (stereo not drawn) [Compound 7] | 6.86
9 | COc1ccc(C2C(C(=O)Nc3ccccc3OC)=C(C)Nc3nc4ccccc4n32)cc1 (stereo not drawn) [Compound 5] | 6.51
10 | Cc1ccc2ncnc(Nc3cccc(Cl)c3)c2c1 [Compound 2-4] | 8.00
11 | OC1(c2ccccc2)CCN(CCCCOC(c2ccc(F)cc2)c2ccc(F)cc2)CC1 [Compound 2-3] | 5.72
12 | CC(C)(C)c1ccc(S(=O)(=O)Nc2ccc(SCc3nc(OCC(F)(F)F)cc(OCC(F)(F)F)n3)cc2)cc1 [Compound 2-1] | 6.82
13 | COc1cccc(CN2CCN(C(=O)c3cc4ccccc4[nH]3)CCC2=O)c1 [Compound 2-8] | 6.74
14 | Mithramycin A [reference compound] | 5.70
15 | COc1ccc(NC(=O)C(Cc2ccccc2)NS(=O)(=O)c2cccc3cccnc23)cc1 (stereo not drawn) [Compound 6] | 7.82
16 | CCN(CC1CCCN(CCc2ccccc2OC)C1)C(=O)c1cc2ccccc2[nH]1 (stereo not drawn) [Compound 2] | 7.13
17 | COc1cc(NC(=O)CCC2CCCN(Cc3ccc(F)c(OC)c3)C2)cc(OC)c1 (stereo not drawn) [Compound 3] | 7.41
18 | Cc1cc2cc(CCNS(=O)(=O)c3ccc(Cl)cc3)c(=O)[nH]c2cc1C [Compound 2-5] | 5.89
